Measurements: patent US8431596B2 (Cancer Research Technology Limited, priority 2007, dated 2013)

These molecules were tested against T1, AXL (human catalytic domain) (Homo sapiens, UniProt P30530) (assay: AXL (human catalytic domain) Enzyme Activity Assay (IMAP fluorescence polarisation)). Conditions: further data set (WW-001 through WW-169, XX-001 through XX-469, YY-001 through YY-016, ZZ-001 through ZZ-003); 150 μM ATP.
T1 construct: purchased Upstate Ltd. 14-512
T1 sequence (P30530 473-894): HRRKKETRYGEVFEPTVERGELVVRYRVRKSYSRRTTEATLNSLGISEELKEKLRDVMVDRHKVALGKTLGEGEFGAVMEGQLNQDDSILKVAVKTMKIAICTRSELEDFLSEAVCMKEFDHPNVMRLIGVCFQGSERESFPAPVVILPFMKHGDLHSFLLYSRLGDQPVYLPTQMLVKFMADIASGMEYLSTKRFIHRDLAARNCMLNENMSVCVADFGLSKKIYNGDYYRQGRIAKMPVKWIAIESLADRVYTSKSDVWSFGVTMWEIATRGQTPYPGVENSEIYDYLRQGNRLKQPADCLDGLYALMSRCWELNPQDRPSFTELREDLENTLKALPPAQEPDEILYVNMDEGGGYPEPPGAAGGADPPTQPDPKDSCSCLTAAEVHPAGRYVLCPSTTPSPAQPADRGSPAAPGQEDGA
Type: biochemical
Procedure, shortened: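 Recombinant human AXL isoform 1 (aa473-894; final 15 nM) phosphorylated 100 nM fluorescein-CSK-tide with 150 μM ATP (KM) in HEPES pH 7.0/MgCl2/DTT buffer for 60 min at room temperature. IMAP fluorescence polarisation read after overnight binding; IC50 from 10-point 4-parameter logistic fits.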

Question: CCCS(=O)(=O)n1cc(-c2cccc3nc(Nc4ccc(OCCN5CCCC5)cc4)nn23)cn1 [XX-380] was tested. Which IC50 did it give?
Answer: ≤ 100 nM

Question: O=S(=O)(C1CCCCC1)n1cc(-c2cccc3nc(Nc4ccc(OCCN5CCCC5)cc4)nn23)cn1 [XX-381] was tested. Which IC50 did it give?
Answer: ≤ 100 nM

Question: How did the IC50 turn out when O=S(=O)(CCC(F)(F)F)n1cc(-c2cccc3nc(Nc4ccc(OCCN5CCCC5)cc4)nn23)cn1 [XX-382] was run?
Answer: ≤ 100 nM

Question: With CCC(C)S(=O)(=O)n1cc(-c2cccc3nc(Nc4ccc(OCCN5CCCC5)cc4)nn23)cn1 (centres unmarked) [XX-383] as the molecule, how does the IC50 read?
Answer: ≤ 100 nM

Question: Which IC50 does the source give for CCCCCS(=O)(=O)n1cc(-c2cccc3nc(Nc4ccc(OCCN5CCCC5)cc4)nn23)cn1 [XX-384] here?
Answer: 100 to 1000 nM

Question: Cc1noc(C)c1S(=O)(=O)n1cc(-c2cccc3nc(Nc4ccc(OCCN5CCCC5)cc4)nn23)cn1 [XX-385] was tested. Which IC50 did it give?
Answer: 100 to 1000 nM

Question: For COc1ccc(-c2cccc3nc(Nc4ccnc(C(=O)NCCN5CCCC5)c4)nn23)cc1 [XX-386], which IC50 is on record?
Answer: 1000 to 10000 nM

Question: Which IC50 does the source give for CCN(CC)CCOc1cc(Nc2nc3cccc(-c4cnn(Cc5ccccc5)c4)n3n2)ccn1 [XX-387] here?
Answer: 100 to 1000 nM

Question: Which IC50 does the source give for CC[C@@H](COc1ccc(Nc2nc3cccc(-c4ccc(OC)cc4)n3n2)cc1)N1CCCC1 [XX-388] here?
Answer: ≤ 100 nM

Question: How did the IC50 turn out when CCN(CC)CCOc1cc(Nc2nc3cccc(-c4cnn(S(=O)(=O)CC(C)C)c4)n3n2)ccn1 [XX-389] was run?
Answer: 100 to 1000 nM

Question: Which IC50 does the source give for COc1ccc(-c2cccc3nc(Nc4cccc(N(C)C(=O)C(C)N5CCCC5)c4)nn23)cc1 (centres unmarked) [XX-390] here?
Answer: ≤ 100 nM

Question: For COc1ccc(-c2cccc3nc(Nc4cccc(N(C)C(=O)C(C)N5CCOCC5)c4)nn23)cc1 (centres unmarked) [XX-391], which IC50 is on record?
Answer: 100 to 1000 nM

Question: How did the IC50 turn out when Cc1ncsc1CNc1cccc(-c2cccc3nc(Nc4ccc(OCCN5CCCC5)cc4)nn23)c1 [XX-394] was run?
Answer: ≤ 100 nM

Question: Cc1ccc(CNc2cccc(-c3cccc4nc(Nc5ccc(OCCN6CCCC6)cc5)nn34)c2)o1 [XX-395] was tested. Which IC50 did it give?
Answer: 100 to 1000 nM

Question: For Cn1nccc1CNc1cccc(-c2cccc3nc(Nc4ccc(OCCN5CCCC5)cc4)nn23)c1 [XX-396], which IC50 is on record?
Answer: ≤ 100 nM

Question: For Cc1nc(CNc2cccc(-c3cccc4nc(Nc5ccc(OCCN6CCCC6)cc5)nn34)c2)c(C)o1 [XX-397], which IC50 is on record?
Answer: 100 to 1000 nM

Question: With c1ccc(CNc2cccc(-c3cccc4nc(Nc5ccc(OCCN6CCCC6)cc5)nn34)c2)cc1 [XX-398] as the molecule, how does the IC50 read?
Answer: 100 to 1000 nM

Question: CCCCNc1cccc(-c2cccc3nc(Nc4ccc(OCCN5CCCC5)cc4)nn23)c1 [XX-399] was tested. Which IC50 did it give?
Answer: 100 to 1000 nM

Question: For Cc1ccccc1COc1cccc(-c2cccc3nc(Nc4ccc(OCCN5CCCC5)cc4)nn23)c1 [XX-400], which IC50 is on record?
Answer: 1000 to 10000 nM

Question: With FC(F)(F)c1cccc(COc2cccc(-c3cccc4nc(Nc5ccc(OCCN6CCCC6)cc5)nn34)c2)c1 [XX-401] as the molecule, how does the IC50 read?
Answer: 1000 to 10000 nM

Question: FC(F)(F)c1ccccc1COc1cccc(-c2cccc3nc(Nc4ccc(OCCN5CCCC5)cc4)nn23)c1 [XX-402] was tested. Which IC50 did it give?
Answer: 1000 to 10000 nM

Question: With CC(Oc1cccc(-c2cccc3nc(Nc4ccc(OCCN5CCCC5)cc4)nn23)c1)C(=O)Nc1ccccc1 (centres unmarked) [XX-403] as the molecule, how does the IC50 read?
Answer: 100 to 1000 nM

Question: How did the IC50 turn out when NC(=O)COc1cccc(-c2cccc3nc(Nc4ccc(OCCN5CCCC5)cc4)nn23)c1 [XX-404] was run?
Answer: 1000 to 10000 nM

Question: CCCOc1cccc(-c2cccc3nc(Nc4ccc(OCCN5CCCC5)cc4)nn23)c1 [XX-405] was tested. Which IC50 did it give?
Answer: 1000 to 10000 nM

Question: Cc1ccc(-c2nnc(COc3cccc(-c4cccc5nc(Nc6ccc(OCCN7CCCC7)cc6)nn45)c3)o2)cc1 [XX-406] was tested. Which IC50 did it give?
Answer: 1000 to 10000 nM

Question: With Cn1nc(COc2cccc(-c3cccc4nc(Nc5ccc(OCCN6CCCC6)cc5)nn34)c2)c2ccccc21 [XX-407] as the molecule, how does the IC50 read?
Answer: 100 to 1000 nM

Question: How did the IC50 turn out when COc1ccc(-c2cccc3nc(Nc4ccc(C(=O)NCCN5CCCC5)o4)nn23)cc1 [XX-408] was run?
Answer: 100 to 1000 nM

Question: How did the IC50 turn out when COc1ccc(-c2cccc3nc(Nc4ccc(C(=O)NCCN5CCCC5)s4)nn23)cc1 [XX-409] was run?
Answer: 100 to 1000 nM

Question: COc1ccc(-c2cccc3nc(Nc4ccc(OCC(O)CN5CCOCC5)cc4)nn23)cc1 (centres unmarked) [XX-410] was tested. Which IC50 did it give?
Answer: 100 to 1000 nM

Question: COc1ccc(-c2cccc3nc(Nc4ccc(OC[C@@H](c5ccccc5)N5CCCC5)cc4)nn23)cc1 [XX-411] was tested. Which IC50 did it give?
Answer: 100 to 1000 nM

Question: CCN(CC)CCOc1ccc(Nc2nc3cccc(-c4ccc(OC)cc4)n3n2)cc1F [XX-412] was tested. Which IC50 did it give?
Answer: 1000 to 10000 nM

Question: How did the IC50 turn out when COc1ccc(-c2cccc3nc(Nc4ccc(OC[C@H](c5ccccc5)N5CCCC5)cc4)nn23)cc1 [XX-413] was run?
Answer: 100 to 1000 nM
